Data reported in patent publication US20220062240A1, “METHODS OF TREATING CANCER USING A CLK INHIBITOR” (BioSplice Therapeutics, Inc., priority 2018, published 2022).
Like-named read-outs stand apart in the source and are kept apart here.

What was measured:
Format in all cases: cell-based
[1] = system: BT-549; assay: CellTiter-Glo Viability Assay, breast cancer; conditions: Homo sapiens, 96 h; BT-549, breast cancer, four days; read-out: EC50
[2] = system: MDA-MB-231-Luc; assay: CellTiter-Glo Viability Assay, breast cancer; conditions: Homo sapiens, 96 h; MDA-MB-231-Luc, breast cancer, four days; read-out: EC50
[3] = system: MCF7; assay: CellTiter-Glo Viability Assay, breast cancer; conditions: Homo sapiens, 96 h; MCF7, breast cancer, four days; read-out: EC50
[4] = system: ZR-75-1; assay: CellTiter-Glo Viability Assay, breast cancer; conditions: Homo sapiens, 96 h; ZR-75-1, breast cancer, four days; read-out: EC50
[5] = system: T47D; assay: CellTiter-Glo Viability Assay, breast cancer; conditions: Homo sapiens, 96 h, breast cancer, four days, read-out: EC50
[6] = system: DU4475; assay: CellTiter-Glo Viability Assay, breast cancer; conditions: Homo sapiens, DU-4475, 96 h; DU4475, breast cancer, four days; read-out: EC50
[7] = system: HCC1599; assay: CellTiter-Glo Viability Assay, breast cancer; conditions: Homo sapiens, 96 h; HCC1599, breast cancer, four days; read-out: EC50
[8] = system: CAMA1; assay: CellTiter-Glo Viability Assay, breast cancer; conditions: Homo sapiens, CAMA-1, 96 h; CAMA1, breast cancer, four days; read-out: EC50
[9] = system: prostate cancer (5 cell lines); assay: CellTiter-Glo Viability Assay, prostate cancer; conditions: Homo sapiens
[10] = system: colorectal cancer (6 cell lines); assay: CellTiter-Glo Viability Assay, colorectal cancer; conditions: Homo sapiens, inhibition of cancer cell proliferation
[11] = system: haematopoietic & lymphoid tumors (13 cell lines); assay: CellTiter-Glo Viability Assay, haematopoietic & lymphoid tumors; conditions: Homo sapiens, inhibition of cancer cell proliferation
[12] = system: lung cancer (4 cell lines); assay: CellTiter-Glo Viability Assay, lung cancer; conditions: Homo sapiens, inhibition of cancer cell proliferation
[13] = system: liver cancer (3 cell lines); assay: CellTiter-Glo Viability Assay, liver cancer; conditions: Homo sapiens, inhibition of cancer cell proliferation
[14] = system: ovarian cancer (4 cell lines); assay: CellTiter-Glo Viability Assay, ovarian cancer; conditions: Homo sapiens, inhibition of cancer cell proliferation
[15] = system: pancreatic cancer (8 cell lines); assay: CellTiter-Glo Viability Assay, pancreatic cancer; conditions: Homo sapiens, inhibition of cancer cell proliferation
[16] = system: all 50 cell lines; assay: CellTiter-Glo Viability Assay, average across all cell lines; conditions: Homo sapiens; across all 50 cell lines; read-out: average EC50 for inhibition of cancer cell proliferation
Outline: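 Proliferation of a multi-tissue human cancer line panel is assessed over four days at 37° C and 5% CO2, seeding 300-3,000 cells/well. Viability is quantified by CellTiter-Glo luminescence, and EC50 values are calculated.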

## CN1CCN(c2cc(C(=O)Nc3cc4cc(-c5cnn(C)c5N)ccc4cn3)ccn2)CC1 [Compound 75]
[1]
  EC50: 169 nM
[2]
  EC50: 188 nM
[3]
  EC50: 483 nM
[4]
  EC50: 177 nM
[5]
  EC50: 246 nM
[6]
  EC50: 123 nM
[7]
  EC50: 91 nM
[8]
  EC50: 216 nM
[9]; DU-145, read-out: Prostate cancer EC50 Du-145
  EC50: 208 nM
[9]; PC-3, PC3 cell line, inhibition of cancer cell proliferation, read-out: Prostate cancer EC50 PC3
  EC50: 159 nM
[9]; 22Rv1 cell line, inhibition of cancer cell proliferation, read-out: Prostate cancer EC50 22Rv1
  EC50: 113 nM
[9]; LNCap clone FGC cell line, inhibition of cancer cell proliferation, read-out: Prostate cancer EC50 LNCap clone FGC
  EC50: 305 nM
[9]; VCaP (Sigma) cell line, inhibition of cancer cell proliferation, read-out: Prostate cancer EC50 VCaP (Sigma)
  EC50: 333 nM
[10]; HCT-116, HCT116 cell line, read-out: Colorectal cancer, EC50 (μM) HCT116
  EC50: 0.102 µM
[10]; HT-29, HT29 cell line, read-out: Colorectal cancer, EC50 (μM) HT29
  EC50: 0.187 µM
[10]; SW-620, SW620 cell line, read-out: Colorectal cancer, EC50 (μM) SW620
  EC50: 0.067 µM
[10]; DLD-1 cell line, read-out: Colorectal cancer, EC50 (μM) DLD-1
  EC50: 0.141 µM
[10]; SW48 cell line, read-out: Colorectal cancer, EC50 (μM) SW48
  EC50: 0.051 µM
[10]; SW480 cell line, read-out: Colorectal cancer, EC50 (μM) SW480
  EC50: 0.143 µM
[11]; DND41, DND-41 cell line, read-out: Haematopoietic & Lymphoid tumors, EC50 (μM) DND-41
  EC50: 0.154 µM
[11]; MV4-11, MV-4-11 cell line, read-out: Haematopoietic & Lymphoid tumors, EC50 (μM) MV-4-11
  EC50: 0.042 µM
[11]; Rec1, REC-1 cell line, read-out: Haematopoietic & Lymphoid tumors, EC50 (μM) REC-1
  EC50: 0.045 µM
[11]; SU-DHL-4, SUDHL4 cell line, read-out: Haematopoietic & Lymphoid tumors, EC50 (μM) SUDHL4
  EC50: 0.155 µM
[11]; HL-60 cell line, read-out: Haematopoietic & Lymphoid tumors, EC50 (μM) HL-60
  EC50: 0.449 µM
[11]; JM1 cell line, read-out: Haematopoietic & Lymphoid tumors, EC50 (μM) JM1
  EC50: 0.044 µM
[11]; JURKAT, Clone E6-1 cell line, read-out: Haematopoietic & Lymphoid tumors, EC50 (μM) JURKAT, Clone E6-1
  EC50: 0.333 µM
[11]; JeKo-1 cell line, read-out: Haematopoietic & Lymphoid tumors, EC50 (μM) JeKo-1
  EC50: 0.046 µM
[11]; KASUMI-1 cell line, read-out: Haematopoietic & Lymphoid tumors, EC50 (μM) KASUMI-1
  EC50: 0.119 µM
[11]; Loucy cell line, read-out: Haematopoietic & Lymphoid tumors, EC50 (μM) Loucy
  EC50: 0.142 µM
[11]; MOLT-4 cell line, read-out: Haematopoietic & Lymphoid tumors, EC50 (μM) MOLT-4
  EC50: 0.162 µM
[11]; TF-1 cell line, read-out: Haematopoietic & Lymphoid tumors, EC50 (μM) TF-1
  EC50: 0.225 µM
[11]; TOLEDO cell line, read-out: Haematopoietic & Lymphoid tumors, EC50 (μM) TOLEDO
  EC50: 0.046 µM
[12]; A-427, A427 cell line, read-out: Lung cancer, EC50 (μM) A427
  EC50: 0.114 µM
[12]; HCC78, HCC-78 cell line, read-out: Lung cancer, EC50 (μM) HCC-78
  EC50: 0.19 µM
[12]; NCI-H460 cell line, read-out: Lung cancer, EC50 (μM) NCI-H460
  EC50: 0.196 µM
[12]; NCI-H522 cell line, read-out: Lung cancer, EC50 (μM) NCI-H522
  EC50: 0.079 µM
[13]; SNU-398, SNU398 cell line, read-out: Liver cancer, EC50 SNU398
  EC50: 34 nM
[13]; HEPG2 cell line, read-out: Liver cancer, EC50 HEPG2
  EC50: 130 nM
[13]; PLC/PRF/5 cell line, read-out: Liver cancer, EC50 PLC/PRF/5
  EC50: 301 nM
[14]; PA-1, PA1 cell line, read-out: Ovarian cancer, EC50 (μM) PA1
  EC50: 0.12 µM
[14]; TOV112D, TOV-112D cell line, read-out: Ovarian cancer, EC50 (μM) TOV-112D
  EC50: 0.108 µM
[14]; OV-90 cell line, read-out: Ovarian cancer, EC50 (μM) OV-90
  EC50: 0.256 µM
[14]; OVCAR-3 cell line, read-out: Ovarian cancer, EC50 (μM) OVCAR-3
  EC50: 0.067 µM
[15]; BXPC-3, BxPC3 cell line, read-out: Pancreatic cancer, EC50 BxPC3
  EC50: 284 nM
[15]; CAPAN-1, Capan1 cell line, read-out: Pancreatic cancer, EC50 Capan1
  EC50: 152 nM
[15]; Capan-2, Capan2 cell line, read-out: Pancreatic cancer, EC50 Capan2
  EC50: 289 nM
[15]; MIA PaCa-2 cell line, read-out: Pancreatic cancer, EC50 MIA PaCa-2
  EC50: 84 nM
[15]; PANC 05.04 cell line, read-out: Pancreatic cancer, EC50 PANC 05.04
  EC50: 138 nM
[15]; PANC-1 cell line, read-out: Pancreatic cancer, EC50 PANC-1
  EC50: 251 nM
[15]; UPAFII cell line, read-out: Pancreatic cancer, EC50 UPAFII
  EC50: 83 nM
[16]
  EC50: 167 nM
